The values below come from US20220296557A1, “COMBINATIONS OF BCL-2/BCL-XL INHIBITORS AND RELATED USES” (Ascentage Pharma (Suzhou) Co., Ltd., priority 2020, published 2022).

Common to all, as to assay type: cell-based
The test system of one test is BON-1. Kind of test: Cell viability/CTG assay, BON-1. As to conditions: BON-1 cell line; CTG assay, 72 hr; values approximate; read-out: IC (μM, CTG assay: 72 hr). The method, then:
(§1) FIGS. 3A and 3B are a set of graphs showing the cell viability/CTG assays for NEN cell lines treated with BCL-2/xL inhibitor Compound No. 2 (an active metabolite of Compound No. 1)(FIG. 3A) or ABT-263 (FIG. 3B).
(§2) The activity of Compound No. 2 (an active metabolite of Compound No. 1) in overcoming apoptotic blockade in neuroendocrine neoplasm was tested, alone or in comparison with ABT-263.

The next test relates to QGP-1. Nature of the test: Cell viability/CTG assay, QGP-1. To be noted: QGP-1 cell line; CTG assay, 72 hr; values approximate; read-out: IC (μM, CTG assay: 72 hr). The method, then:
as §1, §2

For the next test, the system named is NCI-H460. Kind of test: Cell viability/CTG assay, NCI-H460. As to conditions: Homo sapiens; NCI-H460 cell line; CTG assay, 72 hr; values approximate; read-out: IC (μM, CTG assay: 72 hr). The protocol: as §1, §2
For the next test, the system named is β-TC3. Kind of test: Cell viability/CTG assay, β-TC3. To be noted: β-TC3 cell line; CTG assay, 72 hr; values approximate; read-out: IC (μM, CTG assay: 72 hr). The protocol:
as §1, §2

The test system of another test is NCI-H727. Kind of test: Cell viability/CTG assay, NCI-H727. To be noted: Homo sapiens; NCI-H727 cell line; CTG assay, 72 hr; values approximate; read-out: IC (μM, CTG assay: 72 hr). The protocol: as §1, §2
A further test has as its system MIN-6. Kind of test: Cell viability/CTG assay, MIN-6. As to conditions: Mus musculus, MIN6; MIN-6 cell line; CTG assay, 72 hr; values approximate; read-out: IC (μM, CTG assay: 72 hr). The protocol:
as §1, §2

For the next test, the system named is NEN cell lines. Nature of the test: NEN cell viability (general statement). To be noted: FIGS. 3A and 3B. The protocol:
as §1, §2

Another test has as its system BAX:BAK complex. Kind of test: BCL-2 family member complex intensity: BAX:BAK. As to conditions: BON-1 and QGP-1 treated with BCL-2/xL inhibitors; FIG. 4C. The source says:
(§3) FIGS. 4A-4C are a set of graphs showing the BCL-2 family member complex intensity in BON-1 and QGP-I treated with BCL-2/xL inhibitors (FIG. 4A: BCL-xL:BIM complex, FIG. 4B: BCL-xL:PUMA complex; and FIG. 4C: BAX:BAK protein complexes).

Another test deals with T1, BCL-xL:BIM complex (Homo sapiens, UniProt Q07817).
T1 construct: High expression of BCL-xL protein was found in NEN cell lines; endogenous in cells; host or cells: BON-1 and QGP-1 (printed QGP-I) NEN cell lines
T1 sequence (Q07817 whole entry, one chain of several): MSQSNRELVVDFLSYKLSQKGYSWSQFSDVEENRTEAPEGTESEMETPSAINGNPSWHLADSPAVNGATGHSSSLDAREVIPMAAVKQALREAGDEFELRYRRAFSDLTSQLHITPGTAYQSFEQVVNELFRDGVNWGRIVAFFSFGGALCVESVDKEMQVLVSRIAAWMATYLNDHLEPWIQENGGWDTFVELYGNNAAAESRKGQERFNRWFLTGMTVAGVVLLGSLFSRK
Kind of test: BCL-2 family member complex intensity: BCL-xL:BIM. To be noted: BON-1 and QGP-1 treated with BCL-2/xL inhibitors; FIG. 4A.
Text: as §3

On to `CC1(C)CCC(c2ccc(Cl)cc2)=C(CN2CCN(c3ccc(C(=O)NS(=O)(=O)c4ccc(N[C@H](CCN5CCOCC5)CSc5ccccc5)c(S(=O)(=O)C(F)(F)F)c4)cc3)CC2)C1` [ABT-263, 4-(4-{[2-(4-Chlorophenyl)-5,5-dimethyl-1-cyclohexen-1-yl]methyl}-1-piperazinyl)-N-[(4-{[(R)-4-(4-morpholinyl)-1-(phenylsulfanyl)-2-butanyl]amino}-3-[(trifluoromethyl)sulfonyl]phenyl)-sulfonyl]benzamide, reference compound], for which the IC50 in the test with BON-1 was 0.91 µM; in the test with QGP-1, not below 10 µM; with NCI-H460, 71 µM; with β-TC3, 1.12 µM; with NCI-H727 it was 3.74 µM; with MIN-6, 5.56 µM.

Take `Cc1c(S(C)(=O)=O)c(-c2cc(F)cc(N3CCN(c4ccc(NS(=O)(=O)c5ccc(N[C@H](CCN6CCC(C(=O)O)CC6)CSc6ccccc6)c(S(=O)(=O)C(F)(F)F)c5)cc4)CC3)c2)c(-c2ccc(Cl)cc2)n1C(C)C` [Compound No. 2]: the NEN cell viability result in the test on NEN cell lines was “inhibits the NEN cell viability”. Also, the IC50 in the test with BON-1 is 0.43 µM; in the test with QGP-1, 3.78 µM; in the test with NCI-H460 it was not below 10 µM; in the test with β-TC3, 0.55 µM; with NCI-H727 it was 3.79 µM; in the test on MIN-6, 2.07 µM. For the same compound, in the test on BAX:BAK complex, the “BAX:BAK complex” value was “increases BAX:BAK complex”. Besides, the “BCL-xL:BIM complex” value at BCL-xL:BIM complex is “decreases BCL-xL:BIM complex”.
